Laboratory results: PMC4545913, “Dual EZH2 and EHMT2 histone methyltransferase inhibition increases biological efficacy in breast cancer cells” (Clinical Epigenetics, 2015)

Assays:
[1] = test system: FBXO32; assay: qRT-PCR of FBXO32 mRNA in MDA-MB-231 cells; type: cell-based; settings: for fold induction at 10 µM: Homo sapiens, 48 h, MDA-MB-231, single dose 10 μM, normalised against GAPDH, read-out: FBXO32 RNA level, fold increase compared to the mock treated sample
Protocol: (§1) Following compound treatment of MDA-MB-231 for 48 h (in 6-well plates), media was removed and 1.5 ml of TRIzol (Invitrogen) was added directly to lyse cells and RNA was isolated according to the manufacturer’s instructions. Reverse transcription was done using the SuperScript III First-Strand Synthesis System (Invitrogen) according to the manufacturer’s instructions. Each measurement was done in triplicate, and the List of Primers can be found in Additional file 2: Table S1. For normalisation, we have used GAPDH and RNA pol II. Experiments were also done with the ‘Fast Sybr Green Cell-to-CT™-Kit’ according to the manufacturer’s instructions (Applied Biosystem). Fifteen thousand cells per 96 well were plated, and after 24 h, treated with compounds at various concentrations.
(§2) For qRT-PCR measurements the 2x iQ SYBR Green Supermix (Bio-Rad), 200nM Primers and 0.4μl of cDNA /per 20μl reaction was used. The measurement was done in low-white 96-well plates (Bio-Rad) on a CFX96 Real-time System/C1000 Thermal Cycler (Bio-Rad) with the following protocol: 95°C for 3’; 95°C for 10’’, 56°C for 10’’, 72°C for 30’’ 42 cycles followed by a melting curve from 72°C to 95°C.

[2] = test system: EZH2; assay: qRT-PCR of EZH2 mRNA in MDA-MB-231 cells; type: cell-based; settings: Homo sapiens, 48 h; MDA-MB-231, single dose 10 μM, normalised against GAPDH; read-out: EZH2 RNA level, fold increase compared to the mock treated sample
Protocol: as §1, §2

[3] = test system: MDA-MB-231 cells; assay: MTT cell viability assay; type: cell-based; settings: for IC50: Homo sapiens, MDA-MB-231 (Table 2), read-out: Cell viability (MTT) IC50
Protocol: Fig. 1 MTT and mRNA levels in MDA-MB-231 cells after pharmacological inhibition and siRNA knockdown of EZH2 and EHMT2(G9a), individually and in combination. a Expression levels of KRT17, FBX032, JMJD3, EZH2, SPINK1 and EHMT2 were measured by qRT-PCR in the MDA-MB-231 cell line 48 h after transfection with siRNAs targeting EZH2 and EHMT2, both individually and in combination. All measurements were normalised to the fold-change (relative to GAPDH) in the mock transfection control. Error bars represent the mean ± SD of experiment performed in technical triplicate. b Expression levels of KRT17, FBX032, JMJD3 and SPINK1 were measured by qRT-PCR in the MDA-MB-231 cell line treated for 48 h with GSK343, UNC0638, and UNC0638 (at 7.5 μM) with increasing doses of GSK343. Each group has been compared to the untreated sample following normalisation to GAPDH. Error bars represent the mean ± SD of experiment performed in technical triplicate. c MTT assay for cell viability of MDA-MB-231 cells after treatment. MDA-MB-231 cells were seeded in 96 well plates. After 24 h, increasing doses of GSK343, UNC0638 or combination treatments (1, 2.5, 5, 7.5, 10 and 15 μM) were added to cells. Control was media with 0.5 % DMSO. Cell viability was measured by MTT assay after a 48-h treatment and a 24-h proliferation period. Error bars represent the mean ± SEM of five independent repeats
(§3) For clonogenic assays, cells were treated with compound for 48 h, media were removed and replaced with fresh media for a further 12 days to measure colony formation. For cell viability assays, lymphoma cells were plated at 20,000 cells in 200 μl per well in U-bottom 96 well plates in RPMI medium +20 % FCS. Cells were re-suspended 48 h later, diluted 10-fold in PBS + propidium iodide (PI) and the concentration of PI negative cells was counted using an Attune flow cytometer with autosampler. Breast cancer cells were seeded at a density of 10,000 cells/well in a sterile 96 clear-well plate with 150 μl of DMEM (+10 % FCS and 2 mM L-Glutamine). Each compound treatment was performed in triplicate for 72 h at concentrations of 100 nM and 1, 5, 10 and 50 μM in 100 μl of full-medium. After 72 h, 20 μl of MTT solution (3 mg of MTT Formazan, Sigma/1 ml PBS) was added to the medium and incubated for 4 h at 37 °C in a CO2 incubator. The MTT-product was solubilised with 100 μl DMSO, and for 1 h, incubated in the dark at room temperature. The optical density was read at 570 nm with PHERAstar.

[4] = test system: KRT17; assay: qRT-PCR of KRT17 mRNA in MDA-MB-231 cells; type: cell-based; settings: for fold induction at 10 µM: Homo sapiens, 48 h, MDA-MB-231, single dose 10 μM, normalised against GAPDH, read-out: KRT17 RNA level, fold increase compared to the mock treated sample
Protocol: as §1, §2

[5] = test system: JMJD3; assay: qRT-PCR of JMJD3 mRNA in MDA-MB-231 cells; type: cell-based; settings: for fold induction at 10 µM: Homo sapiens, 48 h, MDA-MB-231, single dose 10 μM, normalised against GAPDH, read-out: JMJD3 RNA level, fold increase compared to the mock treated sample
Protocol: as §1, §2

[6] = test system: MDA-MB-231 cells; assay: Clonogenic growth assay; type: cell-based; settings: Homo sapiens; MDA-MB-231, 48 h treatment then 12 days in fresh media
Protocol: as §3

[7] = test system: SPINK1; assay: qRT-PCR of SPINK1 mRNA in MDA-MB-231 cells; type: cell-based
Protocol: as §1, §2

[8] = test system: H3K27me3 and H3K9me3; assay: Western analysis of global histone marks in MDA-MB-231 cells; type: cell-based; settings: range of doses
Protocol: MDA-MB-231 cells seeded in 6 well plates at a cell density of 3 x 10^5 were treated with HKMTI-1-005 (1–7.5uM) for 48 h. Following lysis in Triton Extraction Buffer (TEB, PBS containing 0.5 % Triton ×100 (v/v), 1/1000 protease inhibitor), nuclei were re-suspended in 0.2 N HCL at a density of 4 x 10^7 nuclei per millilitre and incubated overnight at 4 °C to acid-extract the histones, before being centrifuged at 6500g for 10 min at 4 °C. Protein concentration was determined using the Bradford assay. H3K27me3, H3K9me3, H3K9me2, H3K9me and total H3 protein expression levels in the histone extract samples were determined using Western blot analysis using H3K27me3 (1:1000; Abcam), H3K9me3 (1:1000; Abcam), H3K9me (1:1000) and H3 (1:2000; Abcam) antibodies. After washing, the membrane was incubated with a horseradish peroxidase-labelled secondary antibody (1 h, room temperature). The membrane was incubated for 1 min with 5 mL of Pierce ECL Western blotting substrate (Thermo Scientific). Images were captured using Konica Minolta SRX101A Tabletop X-Ray film processor.

[9] = test system: DB; assay: Lymphoma cell growth, cell counting following propidium iodide staining; type: cell-based; settings: Homo sapiens, EZH2 Mutant Y646N, 48 h, PI negative cell count
Protocol: as §3

[10] = test system: DOHH2; assay: as above; type: cell-based; settings: Homo sapiens, DOHH-2, EZH2 W.T., 48 h, PI negative cell count
Protocol: as §3

[11] = test system: SC1; assay: as above; type: cell-based; settings: Homo sapiens, SC-1, EZH2 W.T., 48 h, PI negative cell count
Protocol: as §3

[12] = test system: SUDLH8; assay: as above; type: cell-based; settings: EZH2 W.T. (amplified), 48 h, PI negative cell count
Protocol: as §3

[13] = test system: WSU-FSCLL; assay: as above; type: cell-based; settings: EZH2 W.T., 48 h, PI negative cell count
Protocol: as §3

[14] = test system: WILL1; assay: as above; type: cell-based; settings: WILL-1, EZH2 W.T., 48 h, PI negative cell count
Protocol: as §3

[15] = target: trimeric PRC2 complex (EZH2:EED:SUZ12) (Homo sapiens, UniProt O75530+Q15022+Q15910); assay: PRC2 enzymatic assay (SPA-type), biotinylated-H3 (21–44) peptide substrate; type: biochemical; settings: EZH2:EED:SUZ12, biotinylated-H3 (21–44) peptide substrate
trimeric PRC2 complex (EZH2:EED:SUZ12), sequence (Q15910 whole entry): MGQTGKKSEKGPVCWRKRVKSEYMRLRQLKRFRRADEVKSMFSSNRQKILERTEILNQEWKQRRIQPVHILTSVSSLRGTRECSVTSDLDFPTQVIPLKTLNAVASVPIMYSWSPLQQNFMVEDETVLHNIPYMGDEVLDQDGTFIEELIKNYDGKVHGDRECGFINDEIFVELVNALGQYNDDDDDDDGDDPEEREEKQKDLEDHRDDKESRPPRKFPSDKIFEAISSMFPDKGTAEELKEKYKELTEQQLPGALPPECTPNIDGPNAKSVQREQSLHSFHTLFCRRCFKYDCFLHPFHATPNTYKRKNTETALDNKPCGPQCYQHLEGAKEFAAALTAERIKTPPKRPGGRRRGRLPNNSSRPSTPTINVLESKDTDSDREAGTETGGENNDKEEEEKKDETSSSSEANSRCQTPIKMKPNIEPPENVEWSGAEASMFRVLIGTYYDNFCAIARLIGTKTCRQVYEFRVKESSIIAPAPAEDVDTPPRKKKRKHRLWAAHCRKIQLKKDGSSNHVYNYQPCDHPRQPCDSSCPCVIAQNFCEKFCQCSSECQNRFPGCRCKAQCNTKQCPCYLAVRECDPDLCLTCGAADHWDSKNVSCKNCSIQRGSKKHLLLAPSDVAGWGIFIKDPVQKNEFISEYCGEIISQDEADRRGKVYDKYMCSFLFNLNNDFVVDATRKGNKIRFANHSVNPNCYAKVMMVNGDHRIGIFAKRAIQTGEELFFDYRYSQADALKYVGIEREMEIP
trimeric PRC2 complex (EZH2:EED:SUZ12), sequence (O75530 whole entry partner): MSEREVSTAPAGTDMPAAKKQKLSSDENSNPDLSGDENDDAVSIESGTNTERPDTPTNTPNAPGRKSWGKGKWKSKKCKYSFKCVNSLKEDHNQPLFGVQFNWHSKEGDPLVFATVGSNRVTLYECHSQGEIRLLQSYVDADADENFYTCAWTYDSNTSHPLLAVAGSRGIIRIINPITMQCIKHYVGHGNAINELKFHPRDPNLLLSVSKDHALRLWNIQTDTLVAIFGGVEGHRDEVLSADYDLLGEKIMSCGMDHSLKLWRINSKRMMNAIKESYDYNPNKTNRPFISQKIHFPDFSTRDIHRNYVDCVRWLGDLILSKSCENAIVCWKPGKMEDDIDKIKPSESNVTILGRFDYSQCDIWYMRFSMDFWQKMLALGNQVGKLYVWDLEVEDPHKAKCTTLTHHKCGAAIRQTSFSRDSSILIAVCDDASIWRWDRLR
trimeric PRC2 complex (EZH2:EED:SUZ12), sequence (Q15022 whole entry partner): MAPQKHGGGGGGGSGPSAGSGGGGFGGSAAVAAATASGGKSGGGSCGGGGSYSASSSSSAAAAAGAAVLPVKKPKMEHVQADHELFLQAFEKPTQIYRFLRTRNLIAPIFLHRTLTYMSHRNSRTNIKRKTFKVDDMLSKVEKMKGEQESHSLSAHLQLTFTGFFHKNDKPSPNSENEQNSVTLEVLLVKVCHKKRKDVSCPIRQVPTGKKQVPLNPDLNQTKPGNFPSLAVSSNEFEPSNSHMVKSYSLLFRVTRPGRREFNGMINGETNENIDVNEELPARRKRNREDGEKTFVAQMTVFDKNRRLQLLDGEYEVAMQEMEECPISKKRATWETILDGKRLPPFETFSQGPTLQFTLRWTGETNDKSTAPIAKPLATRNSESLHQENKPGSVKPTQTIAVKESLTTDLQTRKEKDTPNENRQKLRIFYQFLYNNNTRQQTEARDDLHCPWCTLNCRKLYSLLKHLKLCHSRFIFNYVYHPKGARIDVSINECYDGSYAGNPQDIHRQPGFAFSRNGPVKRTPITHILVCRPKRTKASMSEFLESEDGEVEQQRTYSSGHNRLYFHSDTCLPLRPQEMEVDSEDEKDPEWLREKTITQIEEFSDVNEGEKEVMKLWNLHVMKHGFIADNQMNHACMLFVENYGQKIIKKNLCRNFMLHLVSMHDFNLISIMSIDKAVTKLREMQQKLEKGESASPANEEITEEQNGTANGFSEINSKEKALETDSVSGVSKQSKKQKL
Text: A trimeric PRC2 complex (EZH2:EED:SUZ12) was employed in this assay, along with a biotinylated-H3 (21–44) peptide substrate. […] Since the peptide substrates used in these assays are poor models for the complex and dynamic structure of the chromatin substrate in cells and since the only minimal number of PRC2 proteins (EZH2:EED:SUZ12) required for enzymatically active EZH2 were employed in the PRC2 assay, care should be taken in the over interpretation of this in vitro inhibitory data.

[16] = MDA-MB-231, 48 h, single agents 1–15 μM, combination UNC0638 at 7.5 μM with increasing doses of GSK343

Row | IC50 [3] [µM] | IC50 [6] [µM] | IC50 [9] [µM] | IC50 [10] [µM] | IC50 [11] [µM] | IC50 [12] [µM] | IC50 [13] [µM] | IC50 [14] [µM] | IC50 [15] [µM] | Structure (SMILES) | fold induction at 10 µM [1] | fold induction at 10 µM [2] | fold induction at 10 µM [4] | fold induction at 10 µM [5] | Change in SPINK1 mRNA level [7, 16] | Global levels of H3K27me3 and H3K9me3 (Western) [8] | Change in FBXO32 mRNA level [1, 16] | Effect on cell viability ([3]; MDA-MB-231, MTT, up to 15 μM, 48-h treatment and 24-h proliferation period) | Change in KRT17 mRNA level [4, 16] | Change in JMJD3 mRNA level [5, 16] | SPINK1 expression upon treatment ([7]; MDA-MB-231, multiple doses and time points)
1 | 9.6 | 1.4 | – | – | – | – | – | – | – | COc1cc2nc(N3CCCN(C)CC3)nc(NC3CCN(Cc4ccccc4)CC3)c2cc1OC [BIX01294, reference compound] | 3.34 | 0.87 | 1.06 | 2.7 | – | – | – | – | – | – | –
2 | > 15 | > 50 | < 1 | 6.15 | 12.1 | 5.11 | 2.87 | 17.9 | – | CCCc1cc(C)[nH]c(=O)c1CNC(=O)c1cc(-c2ccnc(N3CCN(C)CC3)c2)cc2c1cnn2C(C)C [GSK343, reference compound] | 1.2 | 1 | 0.9 | 1 | little change | minor decrease | little change | no significant reduction in cell viability | little change | little change | –
3 | – | – | – | – | – | – | – | – | – | COc1cc2nc(NCCCN(C)C)nc(NC3CCN(Cc4ccccc4)CC3)c2cc1OC [HKMTI-1-002] | 1.12 | 0.86 | 0.66 | 1.57 | – | – | – | – | – | – | –
4 | – | – | – | – | – | – | – | – | 12 | COc1cc2nc(N3CCN(c4ccccn4)CC3)nc(NC3CCN(Cc4ccccc4)CC3)c2cc1OC [HKMTI-1-011] | – | – | – | – | – | – | – | – | – | – | increased
